Values belong to the molecule of their own block, whether it stands above or below them.
Columns and labels:
[1] = biological target: T1, KRAS G12C C51S C80L C118S (amino acids 1-169) (Homo sapiens, UniProt P01116, C118S/C51S/C80L/G12C); assay: Intact mass spec target engagement, KRAS G12C; format: binding; conditions: 24 hours post-reaction; 5 μM KRAS G12C, 50 μM compound
T1 construct: KRAS G12C C51S C80L C118S (amino acids 1-169)
Experimental: (§1) Exemplary heterobifunctional compounds were evaluated for intact mass spectrometry target engagement against KRAS G12C, BTK, or EGFR T790M L858R (amino acids 669-1011; Accession Number NP_005219.2), separately.
(§2) KRAS G12C: Samples were prepared using 5 μM of KRAS G12C C51S C80L C118S (amino acids 1-169) and 50 μM of heterobifunctional compound in a buffer containing 20 mM HEPES pH 7.5, 150 mM NaCl, and 1 mM TCEP. Protein was incubated with heterobifunctional compound at RT or 37° C. for the given amounts of time then flash-frozen and stored at −80° C. until analysis. Samples were transferred to HPLC vials and injected into Dionex UltiMate 3000 FLM HPLC system with a proprietary column (2.1×50 mm, 5 μm, 1000 Å) at 0.3 mL/minute in a column compartment at 50° C. and run on a Q Exactive Hybrid Quadrupole-Orbitrap Mass Spectrometer. Ion Max source with HESI-II probe were used, with a source voltage of 3.5 kV.
(§3) Results showing ability of exemplary heterobifunctional compounds to generate a modified target protein via intact mass spectrometry are shown in Table 13 below. The amount of different components identified by mass spectrometry at 24 hours post-reaction are listed in Table 14, wherein the different components include: • Un-modified Protein—this is starting protein material (e.g., KRAS G12C, BTK, or EGFR T790M L858R) that remained unchanged in the experiment. • Elimination-Conjugate Product—this is a conjugate formed by reaction of protein with the heterobifunctional compound to form a protein conjugate of the following general formula: […]
(§4) Exemplary Other Material can include, for example, residual impurities in the protein starting material used to conduct the experiment.

KRAS G12C = biological target: T2, KRAS G12C (Homo sapiens, UniProt P01116, C118S/C51S/C80L/G12C); assay: Release of effector protein ligand from heterobifunctional compounds, KRAS G12C; format: biochemical; conditions: detected A1-3
T2 construct: KRAS G12C C51S C80L C118S (amino acids 1-169)
Experimental: (§5) Exemplary heterobifunctional compounds were evaluated for the ability to release an effector protein ligand in the presence of KRAS G12C, BTK, or EGFR T790M L858R target proteins.
(§6) Samples for mass spectrometry for KRAS G12C, BTK, and EGFR T790M L858R were prepared as described above for the intact mass spectrometry target engagement experiment, respectively, except rather than flash-freezing, 20 μL of sample was quenched with 50 μL of 100% acetonitrile. As well, a buffer-only control was used to detect latent release of effector protein ligand analyte. Internal standard (IS) solution consisted of 200 ng/mL propranolol and 50 ng/mL diclofenac in methanol:water 1:1 (v/v). A 4-point calibration curve (calibration standard (CS)) consisting of each analyte was made at final concentrations of 3 nM, 30 nM, 300 nM, and 3000 nM. Unknown samples were diluted such that the unknown analyte concentration was in the linear range of the calibration curve.
(§7) Samples for all proteins were prepared and analyzed from the following:
(§8) Samples were further analyzed with AB Sciex Triple Quad 5500 system coupled with Shimadzu Prominence HPLC.

BTK = biological target: T3, BTK (Homo sapiens, UniProt Q06187); assay: Release of effector protein ligand from heterobifunctional compounds, BTK; format: biochemical; conditions: detected A1-3
T3 construct: BTK (amino acids 387-659)
T3 sequence (Q06187 387-659): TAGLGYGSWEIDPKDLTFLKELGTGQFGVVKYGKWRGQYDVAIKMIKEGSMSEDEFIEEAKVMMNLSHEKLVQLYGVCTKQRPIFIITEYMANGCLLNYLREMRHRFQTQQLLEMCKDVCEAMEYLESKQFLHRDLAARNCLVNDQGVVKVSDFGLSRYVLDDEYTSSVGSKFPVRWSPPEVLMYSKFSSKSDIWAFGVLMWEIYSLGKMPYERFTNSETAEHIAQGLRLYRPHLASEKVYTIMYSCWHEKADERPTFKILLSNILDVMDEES
Experimental: as §5, §6, §7, §8

[2] = biological target: T4, BTK (amino acids 387-659) (Homo sapiens, UniProt Q06187); assay: Intact mass spec target engagement, BTK; format: binding; conditions: 24 hours post-reaction; 2 μM BTK, 20 μM compound
T4 construct: BTK (amino acids 387-659)
T4 sequence (Q06187 387-659): as above
Experimental: as §1
as §2, with “BTK: Samples” for “KRAS G12C: Samples”, “using 2” for “using 5”, “of BTK” for “of KRAS G12C C51S C80L C118S”, “acids 387-659)” for “acids 1-169)”, “and 20” for “and 50”, “NaCl,” for “NaCl, and”
as §3, §4

HEK293 cells = assay: Cellular growth inhibition assay, HEK293 cells (Example 15); format: cell-based; conditions: Homo sapiens, 72 h, three days, CellTiter-Glo 2.0
Experimental: (§9) HEK293 and HeLa cells were cultured in DMEM medium supplemented with 10% fetal bovine serum and 1% Penn/Strep. Cells were seeded in white 384-well plates at 500 cells/well in 25 μL complete medium. Following seeding, plates were spun at 300×g for three minutes and cultured at 37° C. with 5% CO2 in a humidified tissue culture incubator.
(§10) After 24 hours, compounds were titrated in 100% DMSO and diluted in complete cell culture medium. A 25 μL aliquot of compound/media mixture was added to cells to bring total volume in the wells to 50 μL. DMSO alone was used as a negative control. Plates were then spun at 300×g for three minutes and stored at 37° C. with 5% CO2 for three days.
(§11) On Day 0 and Day 3 of compound treatment, cell viability was quantified with CellTiter-Glo 2.0 reagent (Promega). After equilibrating microplates at room temperature for 30 minutes, 25 μL CellTiter-Glo 2.0 reagent was dispensed into each well to bring total volume to 75 μL. Plates were mixed on a shaker for 2 minutes at 500 rpm, followed by a 10-minute incubation at room temperature. Following a quick spin, luminescence readings were measured with an EnVision Plate Reader. Data was normalized to DMSO treated Day 0 and Day 3 readings. […]

HeLa cells = assay: Cellular growth inhibition assay, HeLa cells (Example 15); format: cell-based; conditions: Homo sapiens, 72 h, three days, CellTiter-Glo 2.0
Experimental: as §9, §10, §11

GSPT1 = biological target: T5, GSPT1 (Homo sapiens, UniProt P15170+Q96SW2); assay: GSPT1 HiBiT degradation assay; format: cell-based; conditions: HEK293 LgBiT GSPT1 HiBiT cells, 6 hours
T5 construct: host or cells: HEK293 LgBiT / GSPT1 HiBiT CRISPR knock-in
T5 sequence (P15170 whole entry): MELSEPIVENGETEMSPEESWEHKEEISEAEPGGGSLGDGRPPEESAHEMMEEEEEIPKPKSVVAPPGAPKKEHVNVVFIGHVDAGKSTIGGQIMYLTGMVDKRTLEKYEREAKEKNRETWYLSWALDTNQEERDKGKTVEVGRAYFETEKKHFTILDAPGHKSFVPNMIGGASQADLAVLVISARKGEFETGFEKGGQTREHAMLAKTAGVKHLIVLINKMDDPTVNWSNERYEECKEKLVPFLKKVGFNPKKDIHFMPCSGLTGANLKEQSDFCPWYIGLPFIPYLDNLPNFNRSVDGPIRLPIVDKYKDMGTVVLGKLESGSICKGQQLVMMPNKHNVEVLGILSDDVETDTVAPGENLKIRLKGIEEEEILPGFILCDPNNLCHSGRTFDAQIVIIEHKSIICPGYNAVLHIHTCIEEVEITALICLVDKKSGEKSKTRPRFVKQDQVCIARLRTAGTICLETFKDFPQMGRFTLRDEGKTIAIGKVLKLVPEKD
T5 sequence (Q96SW2 whole entry): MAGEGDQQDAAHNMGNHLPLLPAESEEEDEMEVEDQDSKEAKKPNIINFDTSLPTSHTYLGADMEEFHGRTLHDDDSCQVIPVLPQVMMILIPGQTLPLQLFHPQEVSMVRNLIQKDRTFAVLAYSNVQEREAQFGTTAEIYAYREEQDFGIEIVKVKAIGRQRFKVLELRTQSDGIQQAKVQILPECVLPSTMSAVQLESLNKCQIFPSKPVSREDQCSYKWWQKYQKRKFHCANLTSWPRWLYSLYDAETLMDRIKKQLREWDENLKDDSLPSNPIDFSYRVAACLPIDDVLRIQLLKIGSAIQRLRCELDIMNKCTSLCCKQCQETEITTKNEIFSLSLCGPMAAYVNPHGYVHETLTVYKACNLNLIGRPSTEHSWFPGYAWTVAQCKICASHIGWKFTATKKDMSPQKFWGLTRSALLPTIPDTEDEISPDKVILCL
T5 sequence (Q16531 whole entry partner): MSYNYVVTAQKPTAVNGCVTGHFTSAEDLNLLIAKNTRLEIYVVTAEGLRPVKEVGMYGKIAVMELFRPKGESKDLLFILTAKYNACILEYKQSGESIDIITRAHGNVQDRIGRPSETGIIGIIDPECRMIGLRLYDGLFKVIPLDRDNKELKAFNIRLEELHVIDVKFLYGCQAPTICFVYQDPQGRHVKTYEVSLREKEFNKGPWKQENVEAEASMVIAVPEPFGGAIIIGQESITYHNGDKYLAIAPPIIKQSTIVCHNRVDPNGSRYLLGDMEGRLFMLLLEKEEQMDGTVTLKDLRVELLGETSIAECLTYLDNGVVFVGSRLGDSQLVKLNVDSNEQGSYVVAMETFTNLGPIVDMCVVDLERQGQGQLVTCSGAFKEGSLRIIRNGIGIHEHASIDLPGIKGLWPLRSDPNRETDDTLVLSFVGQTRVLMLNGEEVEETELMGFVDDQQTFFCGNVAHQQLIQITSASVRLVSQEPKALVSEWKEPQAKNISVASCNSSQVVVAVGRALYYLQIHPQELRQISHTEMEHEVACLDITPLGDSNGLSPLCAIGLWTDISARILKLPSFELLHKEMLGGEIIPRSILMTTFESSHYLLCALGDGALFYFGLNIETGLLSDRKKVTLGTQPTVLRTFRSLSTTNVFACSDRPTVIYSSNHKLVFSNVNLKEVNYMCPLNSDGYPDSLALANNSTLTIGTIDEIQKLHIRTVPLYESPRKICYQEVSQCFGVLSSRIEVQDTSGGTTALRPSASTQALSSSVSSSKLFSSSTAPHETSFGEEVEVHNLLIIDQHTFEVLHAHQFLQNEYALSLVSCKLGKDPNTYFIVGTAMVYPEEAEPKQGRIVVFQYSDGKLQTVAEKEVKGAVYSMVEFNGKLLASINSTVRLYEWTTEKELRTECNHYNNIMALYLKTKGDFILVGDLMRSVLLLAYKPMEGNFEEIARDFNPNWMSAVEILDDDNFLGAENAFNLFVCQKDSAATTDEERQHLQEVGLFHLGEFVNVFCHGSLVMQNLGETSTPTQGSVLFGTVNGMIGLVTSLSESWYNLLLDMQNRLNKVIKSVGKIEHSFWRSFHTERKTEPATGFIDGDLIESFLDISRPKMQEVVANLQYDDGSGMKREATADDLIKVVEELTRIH
Procedure, shortened: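 HEK293 CRISPR knock-in cells expressing LgBiT and GSPT1-HiBiT were seeded at 1000 cells/well and, after 18-24 h, treated with titrated compound plus endurazine (0.5× final) at 37 °C. Luminescence read after 6 h; loss of signal reflects GSPT1 degradation, giving DC50.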

[3] = tested on: HEK293 cells (ATCC CRL-1573); assay: Cellular growth inhibition assay, HEK293 cells (Example 16); format: cell-based; conditions: Homo sapiens, 72 hours, CellTiter-Glo 2.0
HeLa cells (ATCC CCL-2) = assay: Cellular growth inhibition assay, HeLa cells (Example 16); format: cell-based; conditions: Homo sapiens, 72 hours, CellTiter-Glo 2.0
[4] = biological target: T6, full-length BTK (amino acids 1-659) (Homo sapiens, UniProt Q06187); assay: KdELECT binding assay, BTK
T6 construct: full-length BTK (amino acids 1-659); host or cells: mammalian cells (HEK-293)
T6 sequence (Q06187 whole entry, the tested form may be a part): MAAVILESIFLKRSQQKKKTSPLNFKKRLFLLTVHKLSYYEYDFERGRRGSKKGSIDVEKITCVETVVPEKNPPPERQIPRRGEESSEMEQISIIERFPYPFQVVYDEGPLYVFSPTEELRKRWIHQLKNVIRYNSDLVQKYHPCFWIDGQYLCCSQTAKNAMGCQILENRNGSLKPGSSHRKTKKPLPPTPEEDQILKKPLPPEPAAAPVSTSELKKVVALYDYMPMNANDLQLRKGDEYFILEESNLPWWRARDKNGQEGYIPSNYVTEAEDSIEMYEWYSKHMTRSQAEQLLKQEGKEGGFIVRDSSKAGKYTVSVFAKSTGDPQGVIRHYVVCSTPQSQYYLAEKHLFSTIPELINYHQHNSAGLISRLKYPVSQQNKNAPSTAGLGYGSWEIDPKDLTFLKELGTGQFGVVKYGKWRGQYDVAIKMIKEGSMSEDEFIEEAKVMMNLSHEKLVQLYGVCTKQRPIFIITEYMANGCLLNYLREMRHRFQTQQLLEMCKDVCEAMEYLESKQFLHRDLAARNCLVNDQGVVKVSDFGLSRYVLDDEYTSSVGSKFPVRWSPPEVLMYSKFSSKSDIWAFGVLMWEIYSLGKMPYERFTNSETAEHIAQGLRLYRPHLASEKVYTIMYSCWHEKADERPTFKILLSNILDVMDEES
Experimental: Exemplary compounds were tested for ability to bind to full-length BTK (amino acids 1-659; Accession Number NP_000052.1) expressed from mammalian cells. Compounds were tested using the KdELECT assay.
Kinase-tagged T7 phage strains were prepared in an E. coli host derived from the BL21 strain. E. coli were grown to log-phase and infected with T7 phage and incubated with shaking at 32° C. until lysis. The lysates were centrifuged and filtered to remove cell debris. The remaining kinases were produced in HEK-293 cells and subsequently tagged with DNA for qPCR detection. Streptavidin-coated magnetic beads were treated with biotinylated small molecule ligands for 30 minutes at room temperature to generate affinity resins for kinase assays. The liganded beads were blocked with excess biotin and washed with blocking buffer (SeaBlock (Pierce), 1% BSA, 0.05% Tween 20, 1 mM DTT) to remove unbound ligand and to reduce non-specific binding. Binding reactions were assembled by combining kinases, liganded affinity beads, and test compounds in 1× binding buffer (20% SeaBlock, 0.17× PBS, 0.05% Tween 20, 6 mM DTT). Test compounds were prepared as 111× stocks in 100% DMSO. Kd values were determined using an 11-point 3-fold compound dilution series with three DMSO control points. All compounds for Kd measurements are distributed by acoustic transfer (non-contact dispensing) in 100% DMSO. The compounds were then diluted directly into the assays such that the final concentration of DMSO was 0.9%. All reactions performed in polypropylene 384-well plate. Each was a final volume of 0.02 mL. The assay plates were incubated at room temperature with shaking for 1 hour and the affinity beads were washed with wash buffer (1× PBS, 0.05% Tween 20). The beads were then re-suspended in elution buffer (1× PBS, 0.05% Tween 20, 0.5 μM nonbiotinylated affinity ligand) and incubated at room temperature with shaking for 30 minutes. The kinase concentration in the eluates was measured by qPCR.

Percent Other Material [1]: 10%
Percent of Addition-Conjugate Product [1]: 5%
Percent of Elimination-Conjugate Product [1]: 83%
Percent of Un-modified Protein [1]: 2%
Concentration of Effector Protein Ligand (KRAS G12C; Matrix Buffer + Protein (KRAS G12C), Time 0 h): 328 nM
Concentration of Effector Protein Ligand (KRAS G12C; Matrix Buffer + Protein (KRAS G12C), Time 2 h): 556 nM
Concentration of Effector Protein Ligand (KRAS G12C; Matrix Buffer + Protein (KRAS G12C), Time 8 h): 1170 nM
Concentration of Effector Protein Ligand (KRAS G12C; Matrix Buffer + Protein (KRAS G12C), Time 24 h): 2020 nM
Concentration of Effector Protein Ligand (KRAS G12C; Matrix Buffer, Time 0 h): 55.8 nM
Concentration of Effector Protein Ligand (KRAS G12C; Matrix Buffer, Time 2 h): 85.3 nM
Concentration of Effector Protein Ligand (KRAS G12C; Matrix Buffer, Time 8 h): 166 nM
Concentration of Effector Protein Ligand (KRAS G12C; Matrix Buffer, Time 24 h): 406 nM
Compound: C=C(Cn1cc(CNc2cc(N3CCCC[C@H]3CCO)nc3c(CC)cnn23)ccc1=O)C(=O)N1CCN(c2nc(OC[C@@H]3CCCN3C)nc3c2CCN(c2cccc4cccc(Cl)c24)C3)C[C@@H]1CC#N [Compound A1-2]

Concentration of Effector Protein Ligand (BTK; Matrix Buffer + Protein (BTK), Time 0 h): 17.8 nM
Concentration of Effector Protein Ligand (BTK; Matrix Buffer + Protein (BTK), Time 1 h): 281 nM
Concentration of Effector Protein Ligand (BTK; Matrix Buffer + Protein (BTK), Time 4 h): 506 nM
Concentration of Effector Protein Ligand (BTK; Matrix Buffer + Protein (BTK), Time 22 h): 460 nM
Concentration of Effector Protein Ligand (BTK; Matrix Buffer, Time 0 h): 4.16 nM
Concentration of Effector Protein Ligand (BTK; Matrix Buffer, Time 1 h): 4 nM
Concentration of Effector Protein Ligand (BTK; Matrix Buffer, Time 4 h): 4.49 nM
Concentration of Effector Protein Ligand (BTK; Matrix Buffer, Time 22 h): 10.4 nM
Percent Other Material [2]: 0%
Percent of Addition-Conjugate Product [2]: 24%
Percent of Elimination-Conjugate Product [2]: 72%
Percent of Un-modified Protein [2]: 4%
Compound: C=C(Cn1cc(CNc2cc(N3CCCC[C@H]3CCO)nc3c(CC)cnn23)ccc1=O)C(=O)N1CCC[C@@H](n2nc(-c3ccc(Oc4ccccc4)cc3)c3c(N)ncnc32)C1 [Compound A1-4]

GI50 (HeLa cells): > 10 µM
Compound: C=C(CN(C(=O)NCc1ccc2c(c1)CN(C1CCC(=O)NC1=O)C2=O)c1ccc(C)c(Cl)c1)C(=O)N1CCC[C@@H](n2nc(-c3ccc(Oc4ccccc4)cc3)c3c(N)ncnc32)C1 (stereo partly drawn) [Compound I-4]
GI50 (HEK293 cells): 1.5 to 10 µM

DC50 (GSPT1): 0.5 to 2.5 µM
GI50 (HeLa cells (ATCC CCL-2)): 1.5 to 10 µM
Kd [4]: < 0.05 µM
Compound: C=C(COc1cc(Cl)cc(NC(=O)NCc2ccc3c(c2)CN(C2CCC(=O)NC2=O)C3=O)c1)C(=O)N1CCC[C@@H](n2nc(-c3ccc(Oc4ccccc4)cc3)c3c(N)ncnc32)C1 (stereo partly drawn) [Compound I-114]
GI50 [3]: 0.5 to 1.5 µM

Reference: patent publication US20240408093A1, “HETEROBIFUNCTIONAL COMPOUNDS AND THEIR USE IN TREATING DISEASE” (HALDA THERAPEUTICS OPCO, INC., priority 2022, published 2024)
